Molecular target: T1, rat NaPi-2b (Rattus norvegicus, UniProt Q9JJ09)
T1 construct: expressed in transfected cells; host or cells: Xenopus oocytes injected with cRNA
T1 sequence (Q9JJ09 1-695): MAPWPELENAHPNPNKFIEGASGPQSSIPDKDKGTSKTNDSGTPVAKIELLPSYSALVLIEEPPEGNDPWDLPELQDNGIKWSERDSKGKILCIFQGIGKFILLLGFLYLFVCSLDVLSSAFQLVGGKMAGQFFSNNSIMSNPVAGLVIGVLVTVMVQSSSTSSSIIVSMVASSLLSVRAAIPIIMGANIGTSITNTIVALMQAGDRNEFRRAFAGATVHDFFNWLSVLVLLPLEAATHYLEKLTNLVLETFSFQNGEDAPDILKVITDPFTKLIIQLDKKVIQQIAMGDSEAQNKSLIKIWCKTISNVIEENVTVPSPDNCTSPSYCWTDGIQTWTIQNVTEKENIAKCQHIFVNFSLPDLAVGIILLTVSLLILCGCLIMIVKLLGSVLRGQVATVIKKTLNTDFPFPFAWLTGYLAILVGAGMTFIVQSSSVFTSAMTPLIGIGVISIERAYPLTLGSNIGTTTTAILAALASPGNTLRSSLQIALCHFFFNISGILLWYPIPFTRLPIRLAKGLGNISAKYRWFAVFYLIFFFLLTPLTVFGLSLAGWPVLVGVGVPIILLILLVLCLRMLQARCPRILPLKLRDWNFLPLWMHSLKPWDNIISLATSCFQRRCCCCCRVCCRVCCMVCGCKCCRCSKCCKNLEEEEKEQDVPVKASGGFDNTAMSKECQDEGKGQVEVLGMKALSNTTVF
Experiment: Sodium-dependent phosphate uptake of Xenopus oocytes which expressed NaPi-2b (32P)
Format: cell-based
Settings: for IC50: Xenopus oocytes expressing rat NaPi-2b, 32P radioactive phosphorus, read-out: IC50 (phosphate uptake inhibitory activity); for inhibition at 300 µM: phosphate uptake, oocytes expressing rat NaPi-2b, determined from inhibition curve
Summary of the method: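 Rat small-intestine NaPi-2b cRNA injected into Xenopus oocytes, expressed for 2 days. Sodium-dependent phosphate uptake measured with 32P; % inhibition at 300 and 100 μM taken from the same inhibition curve.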

SMILES	IC50 [µM]	inhibition at 300 µM [%]
CN1CCCN(c2ccc3nc(-c4cccc(CSCCO)c4)n(/N=C/c4ccc(Cl)c(C(F)(F)F)c4)c(=O)c3c2)CC1 [Compound 932, 3-[(4-Chloro-3-trifluoromethyl-benzylidene)-amino]-2-[3-(2-hydroxy-ethylsulfanylmethyl)-phenyl]-6-(4-methyl-[1,4]diazepan-1-yl)-3 H-quinazolin-4-one]		36.1
C/C(=N\NC(=O)c1ccccc1NC(=O)c1cccnc1)c1ccc(C)cc1 [Compound 251, N-[2-(1-p-Toluyl-ethylidene-hydrazinocarbonyl)-phenyl]-nicotinamide]		31.2
O=C(Nc1ccc(Cl)cc1C(=O)N/N=C/c1ccc(Cl)c(C(F)(F)F)c1)c1cccc(CN2CCC(N3CCCCC3)CC2)c1 [Compound 373, 3-[1,4′]Bipiperidinyl-1′-ylmethyl-N-[4-chloro-2-(4-chloro-3-trifluoromethyl-benzylidene-hydrazinocarbonyl)-phenyl]-benzamide]	1.68	
COc1ccc(C(=O)Nc2sc(C)cc2C(=O)N/N=C/c2ccc(Cl)c(C(F)(F)F)c2)cc1OC [Compound 955, N-[3-(4-Chloro-3-trifluoromethyl-benzylidene-hydrazinocarbonyl)-5-methyl-thiophen-2-yl]-3,4-dimethoxy-benzamide]		57.7
O=C(Nc1ccc(Cl)cc1C(=O)N/N=C/c1cccc(OCCO)c1)c1ccncc1 [Compound 351, N-{4-Chloro-2-[3-(2-hydroxy-ethoxy)-benzylidene-hydrazinocarbonyl]-phenyl}-isonicotinamide]	8.96	
COc1ccc(C(=O)Nc2cc(Cl)ccc2C(=O)N/N=C/c2cccc(O)c2)cc1OC [Compound 75, N-[5-Chloro-2-(3-hydroxy-benzylidene-hydrazinocarbonyl)-phenyl]-3,4-dimethoxy-benzamide]	12.8	
Cc1ccc(/C=N/NC(=O)c2cc(Br)ccc2NC(=O)c2ccc(CSCCO)cc2)cc1C [Compound 265, N-[4-Bromo-2-(3,4-dimethyl-benzylidene-hydrazinocarbonyl)-phenyl]-4-(2-hydroxy-ethylsulfanylmethyl)-benzamide]	< 1	
COc1ccc(C(=O)Nc2ccccc2C(=O)N/N=C/c2cccc(Oc3cccc(C(F)(F)F)c3)c2)cc1OC [Compound 54, 3,4-Dimethoxy-N-{2-[3-(3-trifluoromethyl-phenoxy)-benzylidene-hydrazinocarbonyl]-phenyl}-benzamide]	6.45	
Cc1cc(/C=N/NC(=O)c2ccccc2NC(=O)c2ccccc2F)ccc1O [Compound 45, 2-Fluoro-N-[2-(4-hydroxy-3-methyl-benzylidene-hydrazinocarbonyl)-phenyl]-benzamide]	26.1	
Cc1cccc(/C=N/NC(=O)c2cc(Br)ccc2NC(=O)c2ccc(CN3CCN(CC(=O)N4CCOCC4)CC3)cc2)c1 [Compound 729, N-[4-Bromo-2-(3-methyl-benzylidene-hydrazinocarbonyl)-phenyl]-4-[4-(2-morpholin-4-yl-2-oxo-ethyl)-piperazin-1-ylmethyl]-benzamide]	27.3	
COc1ccc(C(=O)Nc2ccc(Cl)cc2C(=O)N/N=C/c2ccc(O)cc2)cc1OC [Compound 70, N-[4-Chloro-2-(4-hydroxy-benzylidene-hydrazinocarbonyl)-phenyl]-3,4-dimethoxy-benzamide]	9.51	
CCN(CCO)Cc1ccc(C(=O)Nc2ccc(Cl)cc2C(=O)N/N=C/c2ccc(F)cc2)cc1 [Compound 433, N-[4-Chloro-2-(4-fluoro-benzylidene-hydrazinocarbonyl)-phenyl]-4-{[ethyl-(2-hydroxy-ethyl)-amino]-methyl}-benzamide]	14.3	
COc1ccc(/C=N/NC(=O)c2cc(Br)ccc2NC(=O)c2ccc(CN(CC(C)O)CC(C)O)cc2)cc1 (centres unmarked) [Compound 722, 4-{[Bis-(2-hydroxy-propyl)-amino]-methyl}-N-[4-bromo-2-(4-methoxy-benzylidene-hydrazinocarbonyl)-phenyl]-benzamide]	12.8	
COc1ccc(C(=O)Nc2ccccc2C(=O)N/N=C/c2ccc([N+](=O)[O-])cc2)cc1OC [Compound 240, 3,4-Dimethoxy-N-[2-(4-nitro-benzylidene-hydrazinocarbonyl)-phenyl]-benzamide]		37.9

Next, values leading:

IC50 [µM]	inhibition at 300 µM [%]	SMILES
7.8		CCN(CC)CCNCc1ccc(C(=O)Nc2ccc(Br)cc2C(=O)N/N=C/c2cccc(C)c2)cc1 [Compound 294, N-[4-Bromo-2-(3-methyl-benzylidene-hydrazinocarbonyl)-phenyl]-4-[(2-diethylamino-ethylamino)-methyl]-benzamide]
11.6		CCN(CC)CCN(C)Cc1cccc(C(=O)Nc2scc(C)c2C(=O)N/N=C/c2ccc(C)cc2)c1 [Compound 564, 3-{[(2-Diethylamino-ethyl)-methyl-amino]-methyl}-N-[4-methyl-3-(4-methyl-benzylidene-hydrazinocarbonyl)-thiophen-2-yl]-benzamide]
14.2		CCN(CC)CCN(C)Cc1cccc(C(=O)Nc2cc(OCCOC)c(OCCOC)cc2C(=O)N/N=C/c2ccc(C)c(C)c2)c1 [Compound 1030, 3-{[(2-Diethylamino-ethyl)-methyl-amino]-methyl}-N-[2-(3,4-dimethyl-benzylidene-hydrazinocarbonyl)-4,5-bis-(2-methoxy-ethoxy)-phenyl]-benzamide]
< 3		CCN(CC)CCN(C)Cc1cccc(C(=O)Nc2sc3c(c2C(=O)N/N=C/c2ccc(OC(F)(F)F)cc2)CCCC3)c1 [Compound 1001, 3-{[(2-Diethylamino-ethyl)-methyl-amino]-methyl}-N-[3-(4-trifluoromethoxy-benzylidene-hydrazinocarbonyl)-4,5,6,7-tetrahydro-benzo[b]thiophen-2-yl]-benzamide]
1.15		CCN(CCO)Cc1cccc(C(=O)Nc2ccc(Cl)cc2C(=O)N/N=C/c2cccc(F)c2)c1 [Compound 422, N-[4-Chloro-2-(3-fluoro-benzylidene-hydrazinocarbonyl)-phenyl]-3-{[ethyl-(2-hydroxy-ethyl)-amino]-methyl}-benzamide]
	88.8	Cc1csc(NC(=O)c2cccc(CSCCS(=O)(=O)O)c2)c1C(=O)N/N=C/c1ccc(F)cc1 [Compound 783, 2-{3-[3-(4-Fluoro-benzylidene-hydrazinocarbonyl)-4-methyl-thiophen-2-ylcarbamoyl]-benzylsulfanyl}-ethanesulfonic acid]
74.2		CCN(CC)CCOc1ccc(NC(=O)c2ccc(OC)c(OC)c2)c(C(=O)N/N=C/c2ccc(F)cc2)c1 [Compound 140, N-[4-(2-Diethylamino-ethoxy)-2-(4-fluoro-benzylidene-hydrazinocarbonyl)-phenyl]-3,4-dimethoxy-benzamide]
1.04		CCN(CC)CCN(C)Cc1cccc(C(=O)Nc2ccc(Cl)cc2C(=O)N/N=C/c2ccc(C)cc2)c1 [Compound 382, N-[4-Chloro-2-(4-methyl-benzylidene-hydrazinocarbonyl)-phenyl]-3-{[(2-diethylamino-ethyl)-methyl-amino]-methyl}-benzamide]
< 1		CCN(CC)CCN(C)Cc1cccc(C(=O)Nc2ccc(OCC3CCCCC3)cc2C(=O)N/N=C/c2ccc(Cl)c(C(F)(F)F)c2)c1 [Compound 1049, N-[2-(4-Chloro-3-trifluoromethyl-benzylidene-hydrazinocarbonyl)-4-cyclohexylmethoxy-phenyl]-3-{[(2-diethylamino-ethyl)-methyl-amino]-methyl}-benzamide]

Source: US8134015B2, “Compound inhibiting in vivo phosphorous transport and medicine containing the same” (Kyowa Hakko Kirin Co., Ltd., priority 2003, dated 2012)
